Assay [1] has as its target T1, DNA topoisomerase 2-alpha (Homo sapiens, UniProt P11388). Nature of the assay: Inhibition of recombinant human DNA topoisomerase 2alpha expressed in topoisomerase1 deficient Saccharomyces cerevisiae JEL1 using kinetoplast DNA as substrate assessed as decantenated kDNA minicircles at 200 to 1000 uM after 15 mins by agarose gel electrophoresis.
Assay [2] has as its target T1, DNA topoisomerase 2-alpha. Description: Activity at recombinant human DNA topoisomerase 2alpha expressed in topoisomerase1 deficient Saccharomyces cerevisiae JEL1 assessed as topoisomerase 2alpha-mediated supercoiled pBR322 DNA cleavage up to 200 uM after 15 mins by agarose gel electrophoresis.
For assay [3], the target named is T1, DNA topoisomerase 2-alpha. Description: Inhibition of recombinant human DNA topoisomerase 2alpha expressed in topoisomerase1 deficient Saccharomyces cerevisiae JEL1 assessed as inhibition of DNA scission activity after 30 mins by agarose gel electrophoresis.
The target of assay [4] is T1, DNA topoisomerase 2-alpha. Description: Inhibition of recombinant human DNA topoisomerase 2alpha binding to supercoiled pBR322 DNA expressed in topoisomerase1 deficient Saccharomyces cerevisiae JEL1 at 25 uM after 6 mins by electrophoretic mobility shift assay.
Assay [5] deals with T1, DNA topoisomerase 2-alpha. Description: Inhibition of recombinant human DNA topoisomerase 2alpha expressed in topoisomerase1 deficient Saccharomyces cerevisiae JEL1 assessed as inhibition of DNA scission activity at 25 uM after 30 mins by agarose gel electrophoresis.
Assay [6] concerns Escherichia coli. Nature of the assay: Induction of DNA intercalation in relaxed pBR322 DNA assessed as conversion of relaxed DNA to negatively supercoiled DNA by measuring topoisomerase 1-mediated DNA relaxation measured up to 25 uM after 15 mins by agarose gel electrophoresis.
Assay [7] deals with T1, DNA topoisomerase 2-alpha. Description: Induction of recombinant human DNA topoisomerase 2alpha binding to supercoiled pBR322 DNA expressed in topoisomerase1 deficient Saccharomyces cerevisiae JEL1 at 25 uM after 6 mins by electrophoretic mobility shift assay.
Assay [8] concerns Calf thymus DNA. Nature of the assay: Inhibition of calf thymus DNA topoisomerase 2 assessed as DNA cleavage after 30 mins by agarose gel electrophoresis. The class given is nucleic-acid assay, Bos taurus.

pIC50: −log10 of the molar value. Activity calls are given as the source filed them. No cut-off for these calls is given here.

inhibition, Activity and IC50 data for three compounds are collected here from ChEMBL document CHEMBL3779885, “Inhibition of human DNA topoisomerase IIα by two novel ellipticine derivatives” (Bioorg Med Chem Lett, 2016).

T1 sequence (P11388 whole entry): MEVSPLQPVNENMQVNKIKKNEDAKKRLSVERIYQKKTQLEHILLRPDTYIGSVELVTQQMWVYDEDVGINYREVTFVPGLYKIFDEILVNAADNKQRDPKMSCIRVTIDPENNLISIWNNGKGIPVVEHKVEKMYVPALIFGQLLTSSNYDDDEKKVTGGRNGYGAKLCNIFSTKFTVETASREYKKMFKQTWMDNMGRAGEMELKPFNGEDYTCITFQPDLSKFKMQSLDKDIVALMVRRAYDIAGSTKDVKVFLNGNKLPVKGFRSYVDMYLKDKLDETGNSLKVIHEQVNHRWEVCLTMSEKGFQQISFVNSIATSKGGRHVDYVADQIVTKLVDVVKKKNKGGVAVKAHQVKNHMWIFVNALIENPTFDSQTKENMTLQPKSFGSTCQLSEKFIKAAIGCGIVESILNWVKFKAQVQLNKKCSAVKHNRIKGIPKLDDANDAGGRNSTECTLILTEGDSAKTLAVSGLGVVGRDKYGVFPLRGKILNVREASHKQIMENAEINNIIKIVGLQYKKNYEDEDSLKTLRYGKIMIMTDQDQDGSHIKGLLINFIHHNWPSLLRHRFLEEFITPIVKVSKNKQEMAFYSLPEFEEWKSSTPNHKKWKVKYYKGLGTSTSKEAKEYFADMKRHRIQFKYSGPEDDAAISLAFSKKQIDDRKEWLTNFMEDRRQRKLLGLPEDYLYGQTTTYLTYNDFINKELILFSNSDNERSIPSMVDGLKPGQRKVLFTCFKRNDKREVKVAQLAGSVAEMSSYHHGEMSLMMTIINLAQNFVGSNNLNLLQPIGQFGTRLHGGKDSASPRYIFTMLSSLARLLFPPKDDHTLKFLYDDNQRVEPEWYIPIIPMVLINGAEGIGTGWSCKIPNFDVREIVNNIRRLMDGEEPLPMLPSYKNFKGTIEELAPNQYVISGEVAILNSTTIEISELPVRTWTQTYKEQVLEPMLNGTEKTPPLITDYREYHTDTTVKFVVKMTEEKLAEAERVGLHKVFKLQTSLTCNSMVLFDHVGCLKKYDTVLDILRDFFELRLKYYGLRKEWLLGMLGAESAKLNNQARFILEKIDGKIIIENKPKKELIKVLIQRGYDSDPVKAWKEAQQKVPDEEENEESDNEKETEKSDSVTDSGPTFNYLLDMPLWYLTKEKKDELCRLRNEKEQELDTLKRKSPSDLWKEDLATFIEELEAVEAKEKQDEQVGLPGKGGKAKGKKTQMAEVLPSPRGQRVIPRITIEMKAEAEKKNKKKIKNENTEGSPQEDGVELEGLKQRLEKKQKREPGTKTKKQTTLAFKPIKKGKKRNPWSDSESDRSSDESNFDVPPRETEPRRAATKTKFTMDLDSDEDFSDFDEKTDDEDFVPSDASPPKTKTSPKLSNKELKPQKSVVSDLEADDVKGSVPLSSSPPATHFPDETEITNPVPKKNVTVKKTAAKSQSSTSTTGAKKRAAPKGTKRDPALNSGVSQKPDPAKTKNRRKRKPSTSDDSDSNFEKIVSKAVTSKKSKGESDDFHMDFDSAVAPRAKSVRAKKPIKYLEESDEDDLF

As to `Cc1c2cnccc2cc2c1c1ccccc1n2C`, the inhibition entry in assay [1] is “Active”. The outcome in assay [2] was inactive. In addition, the pIC50 in assay [3] was 4.40. Moreover, the inhibition result in assay [4] is “inactive”. In assay [5], the inhibition was found to be 40%. The outcome in assay [6] was Active.
As for `Cc1c2c[n+](C)ccc2cc2c1c1ccccc1n2C`, in assay [1], the inhibition result was “Active”. The outcome in assay [2] was inactive. Further, in assay [3], the negative logarithm of the IC50 (pIC50) was 5.30. For the same compound, the inhibition entry in assay [4] is “inactive”. For the same compound, the Activity in assay [7] came to 50%. The inhibition in assay [5] came out at 80%. Also, the result in assay [6] was Active.
As to `Cc1c2ccncc2c(C)c2c1[nH]c1ccccc12` [ELLIPTECINE], in assay [8], the negative-log IC50 (pIC50) is below 3.70.
